One may read the IC50 as the concentration that gives 50% inhibition.

One assay relates to bone resorption (parietal bone). The experiment in a line: Bone resorption-inhibitory activity (45Ca release from newborn mouse parietal bone, hPTH (1-34) stimulated, method of Raisz). Type of assay: cell-based, ICR mouse. As to conditions: 20 μM, Table 20, average of four pairs, read-out: bone resorption-inhibitory action, % against control. The source says:
The method for determining the bone resorption-inhibitory activity of the Compound (I) and the results are shown in the following.
Bone resorption-inhibitory activity
The determination of the bone resorption-inhibitory activity basically followed the method of Raisz [J. Clin. Invest., vol. 44, pp. 103-116 (1965)].
A 1-2 days old new born ICR mouse was intraperitoneally administered with 1.5μ Ci ^45 Ca (CaCl2 solution of isotope of calcium) and parietal bone was asceptically removed the next day. The parietal bone was split into two along the central sature line and one of them was used as a control and the other was used for the experiment. The bone was preincubated in 0.5 ml of a BGJb medium (Fitton-Jackson modification, GIBCO Laboratories, U.S.A.) added with the test compound to a concentration of 5 μM or 20 μM and bovine serum albumin (1 mg/ml) at 37° C. for 2 days, and further incubated in the aforementioned medium containing 50 nM hPTH (1-34) for 3 days. After the incubation, the radioactivity of ^45 Ca in the medium and in the bone was measured and the ratio (%) of ^45 Ca released from the bone into the medium was calculated. [formula]
Using the bone obtained from the same mouse and treated in the same manner without the test compound as a control, the ratio (%) against the control was calculated according to the following equation. [formula]
The average of these values obtained from four pairs from each group was calculated.
As for `CCc1cc2c(s1)-n1c(C)nnc1C(NS(=O)(=O)c1ccc(C)cc1)N=C2c1ccc(Cl)cc1` (stereo not shown) [compound 254], the inhibition at 20 µM stood at 32.5%. Same read-out and setting: the same measure for `CCc1cc2c(s1)-n1c(C)nnc1C(NC(=O)Cc1ccccc1)N=C2c1ccccc1Cl` (stereo not shown) [compound 255]: 54.3%. In the case of `CCCCCCCCCCCc1nnc2n1-c1sc(CC)cc1C(c1ccc(O)cc1)OC2` (stereo not shown) [compound 302], the inhibition at 20 µM was found to be 22.4%. Turning to `CCCCCCCCCCCc1nnc2n1-c1sc(CC)cc1C(c1ccccc1)OC2` (stereo not shown) [compound 304], the inhibition at 20 µM is 28.6%.

As to `CCCCCCCCCCCc1nnc2n1-c1sc3c(c1C(c1ccccc1Cl)OC2)CCCC3` (stereo not shown) [compound 307], the inhibition at 20 µM was 42.4%. As for `Cc1nnc2n1-c1sc(CCc3ccc(CC(C)C)cc3)cc1C(c1ccccc1Cl)OC2` (stereo not shown) [compound 324], the inhibition at 20 µM was determined as 33.1%. As to `CCc1cc2c(s1)-n1c(CCCc3ccc(CC(C)C)cc3)nnc1COC2c1ccc(Cl)cc1` (stereo not shown) [compound 330], the inhibition at 20 µM came out at 35.6%. Still for that read-out and setting: the same measure for `CCCCCCCc1nnc2n1-c1sc(CC)cc1C(c1ccc(OC)cc1)OC2` (stereo not shown) [compound 348]: 30.3%. Regarding `CCCCCCCCCCCc1nnc2n1-c1sc(CC)cc1C(c1ccc(OCCN(C)C)cc1)OC2` (stereo not shown) [compound 354], the inhibition at 20 µM came to 23.2%. Same read-out and setting: the same measure for `CCCCCCCCCCCc1nnc2n1-c1sc(CC)cc1C(c1ccc(C)cc1)OC2` (stereo not shown) [compound 357]: 24.7%.

Staying with this assay, now noted: 20 μM, Table 21, average of four pairs, read-out: bone resorption-inhibitory action, % against control.
In the case of `CCCCCCCCCCCc1nnc2n1-c1ccccc1C(c1ccc(Cl)cc1)NC2` (stereo not shown) [compound 515], the inhibition at 20 µM was found to be 29.9%. The same measure, in the same setting: in the case of `CCCCCCCCCCCc1nnc2n1-c1ccccc1C(c1ccc(Cl)cc1)OC2` (stereo not shown) [compound 516] it was 22.4%.

Staying with this assay, now noted: read-out: IC50 (figures in parentheses), bone resorption-inhibitory action.
Regarding `COc1ccccc1NC(=O)NC1N=C(c2ccccc2)c2cc(Cl)ccc2-n2c(C)nnc21` (stereo not shown) [compound 532], the IC50 was determined as 930 nM.

The assay is the same for the next values; noted with them: read-out: bone resorption-inhibitory action, % against control.
Turning to `CCc1cc2c(s1)-n1c(C)nnc1C(OC(=O)Nc1cccc(C)c1)N=C2c1ccc(OC)cc1` (stereo not shown) [compound 257], the inhibition at 20 µM stood at 27.1%. On the same count and under the same terms, in the case of `CCOC(=O)C1(NC(=O)Nc2cccc(C)c2)N=C(c2ccc(Cl)cc2)c2ccccc2-n2c(C)nnc21` (stereo not shown) [compound 501] it was 29.5%.

As for `COc1ccccc1NC(=O)NC1N=C(c2ccc(Cl)cc2)c2ccccc2-n2c(C)nnc21` (stereo not shown) [compound 502], the inhibition at 20 µM was 31.8%. On the same count and under the same terms, the same measure for `Cc1cccc(NC(=O)NC2N=C(c3ccc(Cl)cc3)c3ccccc3-n3c(C)nnc32)c1` (stereo not shown) [compound 503]: 30.4%; for `Cc1nnc2n1-c1ccccc1C(c1ccc(Cl)cc1)=NC2NC(=O)OCc1ccccc1` (stereo not shown) [compound 504]: 24.6%; for `COc1ccccc1NC(=O)NCC1N=C(c2ccc(Cl)cc2)c2ccccc2-n2c(C)nnc21` (stereo not shown) [compound 505]: 53.5%. For the compound `Cc1cccc(NC(=O)NCC2N=C(c3ccc(Cl)cc3)c3ccccc3-n3c(C)nnc32)c1` (stereo not shown) [compound 506], the inhibition at 20 µM turned out to be 32.5%. On the same count and under the same terms, the same measure for `Cc1nnc2n1-c1ccccc1C(c1ccc(Cl)cc1)=NC2NS(=O)(=O)Cc1ccccc1` (stereo not shown) [compound 507]: 35.6%. For the compound `Cc1nnc2n1-c1ccccc1C(c1ccc(Cl)cc1)=NC2Cc1c[nH]c2ccccc12` (stereo not shown) [compound 508], the inhibition at 20 µM turned out to be 48.1%. Take `COc1ccccc1NC(=O)OCC1N=C(c2ccccc2)c2ccccc2-n2c(C)nnc21` (stereo not shown) [compound 509]: the inhibition at 20 µM was found to be 35%. On the same count and under the same terms, the same measure for `Cc1cccc(NC(=O)OCC2N=C(c3ccccc3)c3ccccc3-n3c(C)nnc32)c1` (stereo not shown) [compound 510]: 28.3%. `Cc1nnc2n1-c1ccccc1C(c1ccccc1)=NC2COC(=O)Cc1ccccc1` (stereo not shown) [compound 511]: the inhibition at 20 µM was 37.7%. With `CCCCCCCCCCCc1nnc2n1-c1ccccc1C(c1ccc(Cl)cc1)=NC2` [compound 513], the inhibition at 20 µM was 43.3%. Still for that read-out and setting: in the case of `CC(C)Cc1ccc(CCc2nnc3n2-c2ccccc2C(c2ccc(Cl)cc2)=NC3)cc1` [compound 517] it was 47.3%; in that of `Cc1ccc(S(=O)(=O)OCC2N=C(c3ccccc3)c3ccccc3-n3c(C)nnc32)cc1` (stereo not shown) [compound 518], 45.4%. Consider `CCCCCCCCCCc1ccc2c(c1)C(c1ccccc1)=NC(C)c1nnc(C)n1-2` (stereo not shown) [compound 519], for which the inhibition at 20 µM is 21.1%. Turning to `CCCCCCCCCCc1ccc2c(c1)-n1c(C)nnc1C(C)N=C2c1ccccc1` (stereo not shown) [compound 520], the inhibition at 20 µM is 22.5%. In the case of `Cc1cccc(NC(=O)NC2N=C(c3cccs3)c3ccccc3-n3c(C)nnc32)c1` (stereo not shown) [compound 521], the inhibition at 20 µM was 29.6%. Take `Cc1nnc2n1-c1ccccc1C(c1ccc(Cl)cc1)=NC2NC(=O)Nc1ccccn1` (stereo not shown) [compound 522]: the inhibition at 20 µM amounted to 32.8%. The same measure, in the same setting: the same measure for `Cc1nnc2n1-c1ccccc1C(c1ccc(Cl)cc1)=NC2NC(=O)Nc1cccnc1` (stereo not shown) [compound 523]: 26.7%; for `Cc1nnc2n1-c1ccccc1C(c1ccc(Cl)cc1)=NC2NC(=O)NC(=O)c1ccccc1` (stereo not shown) [compound 525]: 26.8%. `Cc1nnc2n1-c1ccccc1C(c1ccc(Cl)cc1)=NC2NC(=O)C(=O)Nc1ccccc1` (stereo not shown) [compound 530]: the inhibition at 20 µM was 28.2%. As to `Cc1cccc(N2C(=O)NC3(N=C(c4ccc(Cl)cc4)c4ccccc4-n4c(C)nnc43)C2=O)c1` (stereo not shown) [compound 531], the inhibition at 20 µM was determined as 34.4%.

With `COc1ccccc1NC(=O)NC1N=C(c2ccccc2)c2cc(Cl)ccc2-n2c(C)nnc21` (stereo not shown) [compound 532], the inhibition at 20 µM amounted to 28.1%.

For the origin of these results see patent publication US5593988A, “Therapeutic agent for osteoporosis and diazepine compound” (Yoshitomi Pharmaceutical Industries, Ltd., priority 1991, dated 1997).
